Data taken from patent publication US20170044107A1, “Inhibitors of JMJD2C as Anticancer Agents” (The J. David Gladstone Institutes, priority 2014, published 2017).
Structures can show the parent of a compound that is named as a salt.

Key:
Type in all cases: cell-based
[1] = tested on: CWR22Rv1 androgen-independent prostate cancer cells; experiment: CellTiter-Glo Luminescent Cell Viability Assay, CWR22Rv1 cells; conditions: 48 hours treatment, % of survival normalized to DMSO control; for viability at 10 µM: CWR22Rv1, compound at 10 μM
Protocol: (§1) Cell viability assays were performed on three representative prostate cancer cell lines (i.e., CWR22Rvl, PC3 and DU145) to determine the effect of treatment with a series of 8-hydroxyquinoline derivatives.
(§2) Cell viability was assessed 48 hours after compound treatment with the CellTiter-Glo® Luminescent Cell Viability Assay (Promega), according to the manufacturer's protocol. Briefly, 5000 cells were plated into 96-well cell culture plates in DMEM supplemented with 10% FBS. After overnight incubation, compounds at indicated concentrations were added and the treatment was maintained for two days. At the end of compound treatment, 5.0 μL of CellTiter-Glo® Reagent was added to each well. Plates were returned to the incubator for 2 hours. Plates were then removed from the incubator and luminescence was measured in a standard luminescence plate reader. The luminescence signal was then used to calculate % of survival normalized to DMSO control treatment.

[2] = tested on: PC3 androgen-independent prostate cancer cells; experiment: CellTiter-Glo Luminescent Cell Viability Assay, PC3 cells; conditions: 48 hours treatment, % of survival normalized to DMSO control; for viability at 2 µM: Homo sapiens, PC-3, compound at 2 μM
Protocol: as §1, §2

[3] = tested on: DU145 androgen-independent prostate cancer cells; experiment: CellTiter-Glo Luminescent Cell Viability Assay, DU145 cells; conditions: 48 hours treatment, % of survival normalized to DMSO control; for viability at 2 µM: Homo sapiens, DU-145, compound at 2 μM
Protocol: as §1, §2

Row | Compound | viability at 10 µM [1] [%] | viability at 2 µM [2] [%] | viability at 2 µM [3] [%] | % CWR22Rv1 Survival (Compound at 10 μM) [1] [%] | % PC3 Survival (Compound at 2 μM) [2] [%] | % DU145 Survival (Compound at 2 μM) [3] [%]
1 | CC(C)C(=O)NC(c1ccco1)c1ccc2cccnc2c1O (stereo not drawn) [SD70, N-(furan-2-yl(8-hydroxyquinolin-7-yl)methyl)isobutyramide] | 9 | 14 | 26 |  |  | 
2 | CCC(=O)NC(c1ccco1)c1cc(Cl)c2cccnc2c1O (stereo not drawn) [SD70-1, N-((5-chloro-8-hydroxyquinolin-7-yl)(furan-2-yl)methyl)propionamide] | 93 | 47 | 87 |  |  | 
3 | CC(C)C(=O)NC(c1ccco1)c1cc(Cl)c2cccnc2c1O (stereo not drawn) [SD70-2, N-((5-chloro-8-hydroxyquinolin-7-yl)(furan-2-yl)methyl)isobutyramide] | 100 | 9 | 32 |  |  | 
4 | CC(=O)NC(c1ccco1)c1cc(Cl)c2cccnc2c1O (stereo not drawn) [SD70-3, N-((5-chloro-8-hydroxyquinolin-7-yl)(furan-2-yl)methyl)acetamide] | 110 | 88 | 110 |  |  | 
5 | CCCC(=O)NC(c1ccco1)c1cc(Cl)c2cccnc2c1O (stereo not drawn) [SD70-4, N-((5-chloro-8-hydroxyquinolin-7-yl)(furan-2-yl)methyl)butyramide] | 110 | 7 | 29 |  |  | 
6 | O=C(NC(c1ccco1)c1cc(Cl)c2cccnc2c1O)c1cccnc1 (stereo not drawn) [SD70-5, N-((5-chloro-8-hydroxyquinolin-7-yl)(furan-2-yl)methyl)nicotinamide] | 94 | 23 | 31 |  |  | 
7 | COc1ccc(C(=O)NC(c2ccco2)c2cc(Cl)c3cccnc3c2O)cc1 (stereo not drawn) [SD70-6, N-((5-chloro-8-hydroxyquinolin-7-yl)(furan-2-yl)methyl)-4-methoxybenzamide] | 21 | 24 | 50 |  |  | 
8 | O=C(COc1ccccc1)NC(c1ccco1)c1cc(Cl)c2cccnc2c1O (stereo not drawn) [SD70-7, N-((5-chloro-8-hydroxyquinolin-7-yl)(furan-2-yl)methyl)-2-phenoxyacetamide] | 28 | 21 | 21 |  |  | 
9 | CCC(=O)NC(c1ccccc1OC)c1cc(Cl)c2cccnc2c1O (stereo not drawn) [SD70-8, N-((5-chloro-8-hydroxyquinolin-7-yl)(2-methoxyphenyl)methyl)propionamide] | 10 | 61 | 42 |  |  | 
10 | CCC(=O)NC(c1ccc(OC)c(OC)c1)c1cc(Cl)c2cccnc2c1O (stereo not drawn) [SD70-9, N-((5-chloro-8-hydroxyquinolin-7-yl)(3,4-dimethoxyphenyl)methyl)propionamide] | 18 | 21 | 10 |  |  | 
11 | CCC(=O)NC(c1ccco1)c1cc([N+](=O)[O-])c2cccnc2c1O (stereo not drawn) [SD70-10, N-(furan-2-yl(8-hydroxy-5-nitroquinolin-7-yl)methyl)propionamide] | 110 | 93 | 100 |  |  | 
12 | CCC(=O)NC(c1ccco1)c1ccc2cccnc2c1O (stereo not drawn) [SD70-11, N-(furan-2-yl(8-hydroxyquinolin-7-yl)methyl)propionamide] | 16 | 79 | 120 |  |  | 
13 | Oc1ccc(CCl)c2cccnc12 [SD70-15, 5-(chloromethyl)quinolin-8-ol hydrochloride] | 91 | 96 | 100 |  |  | 
14 | Oc1ccc(COCc2ccccc2)c2cccnc12 [SD70-16, 5-(benzyloxymethyl)quinolin-8-ol] | 20 | 14 | 19 |  |  | 
15 | Oc1ccc(CNCCN2CCOCC2)c2cccnc12 [SD70-17, 5-((2-morpholinoethylamino)methyl)quinolin-8-ol] | 7 | 98 | 100 |  |  | 
16 | Oc1c(CN2CCN(c3ccccn3)CC2)ccc2cccnc12 [SD70-18, 7-((4-(pyridin-2-yl)piperazin-1-yl)methyl)quinolin-8-ol] | 27 | 125 | 110 |  |  | 
17 | Oc1c(CNCCN2CCOCC2)ccc2cccnc12 [SD70-19, 7-((2-morpholinoethylamino)methyl)quinolin-8-ol] | 107 | 98 | 94 |  |  | 
18 | Oc1c(CN2CCCCC2)ccc2cccnc12 [SD70-20, 7-(piperidin-1-ylmethyl)quinolin-8-ol] | 99 | 98 | 88 |  |  | 
19 | CC(C)CCNCc1ccc2cccnc2c1O [SD70-21, 7-((isopentylamino)methyl)quinolin-8-ol] | 93 | 93 | 100 |  |  | 
20 | COc1c(C(NC(=O)C(C)C)c2ccco2)ccc2cccnc12 (stereo not drawn) [SD70-23, N-(furan-2-yl(8-methoxyquinolin-7-yl)methyl)isobutyramide] | 96 |  |  |  |  | 
21 | COc1ccc(C(NC(=O)C(C)C)c2ccc3cccnc3c2O)cc1OC (stereo not drawn) [SD70-24, N-((3,4-dimethoxyphenyl)(8-hydroxyquinolin-7-yl)methyl)isobutyramide] | 12 |  |  |  |  | 
22 | CC(C)C(=O)NC(c1ccc([N+](=O)[O-])cc1)c1ccc2cccnc2c1O (stereo not drawn) [SD70-25, N-((8-hydroxyquinolin-7-yl)(4-nitrophenyl)methyl)isobutyramide] | 16 |  |  |  |  | 
23 | N-((8-hydroxyquinolin-7-yl)(4-methoxyphenyl)methyl)isobutyramide isobutyramide [SD70-22] |  |  |  | 18 | 13 | 21
